The source of these data is ChEMBL document CHEMBL1137128, “Quantitative structure-activity relationship analysis of a series of 2,3-diaryl benzopyran analogues as novel selective cyclooxygenase-2 inhibitors” (Bioorg Med Chem Lett, 2004).

In the assay the target is T1, Prostaglandin G/H synthase 2 (Mus musculus, UniProt Q05769).
T1 sequence (Q05769 whole entry): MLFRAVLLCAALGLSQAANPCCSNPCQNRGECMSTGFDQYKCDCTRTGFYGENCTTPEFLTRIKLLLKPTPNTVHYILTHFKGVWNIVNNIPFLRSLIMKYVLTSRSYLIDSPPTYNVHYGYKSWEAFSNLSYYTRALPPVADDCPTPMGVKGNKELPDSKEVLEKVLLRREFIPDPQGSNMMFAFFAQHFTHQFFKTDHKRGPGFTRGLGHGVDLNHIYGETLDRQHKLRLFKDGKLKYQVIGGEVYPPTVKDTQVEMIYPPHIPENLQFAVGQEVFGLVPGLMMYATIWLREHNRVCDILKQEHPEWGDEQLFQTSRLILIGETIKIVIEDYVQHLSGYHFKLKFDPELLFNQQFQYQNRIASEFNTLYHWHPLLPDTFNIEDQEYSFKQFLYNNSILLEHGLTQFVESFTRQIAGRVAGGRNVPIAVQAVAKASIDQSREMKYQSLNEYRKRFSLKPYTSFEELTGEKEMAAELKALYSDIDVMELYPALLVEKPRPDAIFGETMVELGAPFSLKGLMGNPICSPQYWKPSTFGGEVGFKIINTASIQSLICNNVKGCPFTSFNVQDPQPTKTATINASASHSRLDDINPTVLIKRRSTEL
Nature of the assay: In vitro inhibitory activity against Prostaglandin G/H synthase 2 from mouse peritoneal macrophages.

What is called IC50 is the point on the concentration scale where inhibition reaches its midpoint. Higher therefore signals a need for much substance. With `CS(=O)(=O)c1ccc(-c2oc3ccccc3c(=O)c2-c2cc3ccccc3s2)cc1`, the IC50 is 0.331 µM.
